Source: patent publication US20070092551A1, “Therapeutic agent” (TAKARA BIO INC., priority 2003, published 2007)

Experiments:
3T3-L1 cells = assay: Induction of adipocyte differentiation (amount of triglyceride biosynthesis); format: cell-based; conditions: Mus musculus, 3T3-L1, X=(S−N)/(P−N) of amount of triglyceride, P=insulin positive control, read-out: Action for Induction of Differentiation
Method in brief: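 3T3-L1 cells were grown 7 days in DMEM/10% FBS/200 μM ascorbic acid, then given test compound with 0.25 μM dexamethasone for 45 h, then compound alone for 7 days, re-dosed at medium changes. Hexane:isopropanol-extracted triglyceride was measured in duplicate; X=(S−N)/(P−N) versus DMSO (N) and insulin (P), ranked +++ to +/−.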

[1] = system: mature adipocytes (3T3-L1 cells); assay: Enhancing action on glucose uptake (2-deoxyglucose) into mature adipocytes; format: cell-based; conditions: Mus musculus, 3T3-L1, X=(S−N)/(P−N) of 2-deoxyglucose uptake, P=insulin 1 μg/mL, read-out: Enhancing Action on Glucose Uptake
Experimental: The induction of differentation into nature adipocytes was carried out by partially modifying the above-mentioned method of Rubin C. S. et al. 3T3-L1 cells (ATCC CCL-92.1) were suspended in a 10% fetal bovine serum (manufactured by Bio Whittaker)-containing Dulbecco's modified Eagle's medium (manufactured by Sigma, D6046) containing 200 μM ascorbic acid so as to have a density of 4×10^3 cells/mL, and the suspension was put in each well of a collagen type I-coated 12-well plate (Iwaki Glass Co., Ltd., code 4815-010) in an amount of 2 mL per well. The cells were cultured at 37° C. for 7 days in the presence of 5% carbon dioxide gas. On the seventh day, the medium was exchanged with 2 mL of a 10% fetal bovine serum (manufactured by Bio Whittaker)-containing Dulbecco's modified Eagle's medium containing 200 μM ascorbic acid, 0.25 μM dexamethasone, 10 μg/mL insulin (manufactured by TAKARA BIO INC.) and 0.5 mM 3-isobutyl-1-methylxanthine (manufactured by nacalai tesque, 19624-86). After 45 hours, the medium was exchanged with 2 mL of a 10% fetal bovine serum-containing Dulbecco's modified Eagle's medium containing 200 μM ascorbic acid and 5 μg/mL insulin. The medium was exchanged on after 2 days and 5 days, and the cells were cultured for 7 days, to give mature adipocytes.
As the evaluation of the enhancing action on glucose uptake, and also as the evaluation of the insulin-mimetic action, the amount of 2-deoxyglucose uptake into mature adipocytes during the stimulation of the test compound in the adipocytes was determined. As a test compound, a compound prepared in the Examples mentioned above or a commercially available compound was used.
After the termination of the culture, the medium was removed, and the cells were washed twice with a 0.1% (w/v) bovine serum albumin (manufactured by Sigma, A8022)-containing Dulbecco's modified Eagle's medium. Thereafter, 1 mL of the same medium containing a test compound in a concentration shown in each of Tables 20 to 23 was put to each well. The cells were cultured overnight at 37° C. in the presence of 5% carbon dioxide gas. Here, a group without containing the test compound was set as a negative control. After the overnight culture, the cells were washed twice with a HEPES buffer (140 mM NaCl, 5 mM KCl, 2.5 mM MgSO4, 1 mM CaCl2, 20 mM HEPES-Na (pH 7.4)). The amount 0.9 mL of the buffer containing a test compound in the same concentration was added to each well. The cells were cultured at 37° C. for 75 minutes. During the culture, as a positive control, there was set a group with addition of insulin to the well without addition of a test compound at a point 45 minutes passed so as to have a final concentration of 1 μg/mL. Thereafter, 100 μL of a HEPES buffer containing 0.5 μCi/mL 2-deoxy-[1,2-^3H(N)]-glucose (manufactured by PerkinElmer Life Sciences Inc., NET549A) and 1 mM 2-deoxyglucose (manufactured by nacalai tesque, 10722-11) was added thereto. The cells were cultured at 37° C. for additional 10 minutes. After the termination of the culture, the supernatant was removed, and the cells were washed three times with a phosphate buffer cooled to 4° C. Thereafter, 0.5 mL of a 1% Nonidet P-40-containing phosphate buffer was added to lyse the cells, whereby 2-deoxy-[1,2-^3H(N)]-glucose subjected to uptake into the cells was eluted. The radioactivity was determined with a liquid scintillation counter LS6500 (manufactured by Beckmann) using 25 μL of the supernatant with Ultima Gold (manufactured by PerkinElmer Life Sciences Inc., 6013329) as a scintillation cocktail. The enhancing action on glucose uptake was calculated by the following calculation formula, and shown by four ranks of +++, ++, + and +/−. • S: Amount of 2-deoxyglucose uptake in the presence of a test compound; • N: Amount of 2-deoxyglucose uptake in the negative control; and • P: Amount of 2-deoxyglucose uptake in the positive control; X=(S−N)/(P−N) (Judgment of Enhancing Action for 2-Deoxyglucose Uptake)

SMILES | activation at 3 µM (3T3-L1 cells) [%] | activation at 10 µM (3T3-L1 cells) [%] | activation at 30 µM [1] [%] | activation at 3 µM [1] [%] | activation at 10 µM [1] [%] | activation at 1 µM (3T3-L1 cells) [%] | activation at 4 µM (3T3-L1 cells) [%] | activation at 13 µM (3T3-L1 cells) [%] | activation at 30 µM (3T3-L1 cells; 30 μM) [%] | activation at 1.3 µM (3T3-L1 cells; 1.3 μM) [%]
CC(C)=CCC/C(C)=C/Cc1c(O)ccc(C(=O)/C=C/c2ccc(Cl)cc2)c1O [Compound (C074), 4-chloro-2′,4′-dihydroxy-3′-geranylchalcone] | 15 to 30 | 30 to 60 | 30 to 60 | – | – | – | – | – | – | –
CC(C)=CCC/C(C)=C/Cc1c(OCc2ccccc2)ccc(C(=O)/C=C/c2ccc(O)cc2)c1O [Compound (C073), 4,2′-dihydroxy-3′-geranyl-4′-benzyloxychalcone] | 15 to 30 | – | – | 15 to 30 | 15 to 30 | – | – | – | – | –
COc1ccc(C(=O)/C=C/c2cccc([N+](=O)[O-])c2)c(O)c1CC=C(C)C [Compound (C076), 3-nitro-2′-hydroxy-3′-prenyl-4′-methoxychalcone] | > 100 | > 100 | > 100 | 15 to 30 | 30 to 60 | 60 to 100 | – | – | – | –
O=C(/C=C/c1ccc(Cl)cc1)c1ccccc1OCc1ccccc1 [Compound (C066), 4-chloro-2′-benzyloxychalcone] | 60 to 100 | > 100 | 60 to 100 | – | 60 to 100 | – | – | – | – | –
COc1ccc(C(=O)/C=C/c2ccc(O)cc2)c(O)c1 [Compound (C020), 4,2′-dihydroxy-4′-methoxychalcone] | – | – | 60 to 100 | – | 30 to 60 | – | 30 to 60 | 60 to 100 | – | –
CC(C)=CCc1c(O)ccc(C(=O)/C=C/c2ccc(Cl)cc2)c1O [Compound (C075), 4-chloro-2′,4′-dihydroxy-3′-prenylchalcone] | 15 to 30 | 30 to 60 | 30 to 60 | – | 15 to 30 | – | – | – | – | –
COc1ccc(/C=C/C(=O)c2ccc(OC)c(CC=C(C)C)c2O)cc1 [Compound (C035), 4,4′-dimethoxy-2′-hydroxy-3′-prenylchalcone] | 60 to 100 | > 100 | 60 to 100 | – | 30 to 60 | – | – | – | – | –
CCOc1ccc(C(C)=O)c(O)c1C/C=C(\C)CCC=C(C)C [Compound (C048), 2′-hydroxy-3′-geranyl-4′-ethoxyacetophenone] | – | > 100 | > 100 | 15 to 30 | 30 to 60 | – | – | – | > 100 | –
COc1cc(O)c(C(=O)/C=C/c2ccc(O)cc2)cc1CC=C(C)C [Bavachalcone, 4,2′-Dihydroxy-4′-methoxy-5′-prenylchalcone] | – | – | > 100 | – | 30 to 60 | – | 15 to 30 | 30 to 60 | – | –
COc1ccc(C(C)=O)c(O)c1CC=C(C)C [Compound (C026), 2′-hydroxy-3′-prenyl-4′-methoxyacetophenone] | – | – | 30 to 60 | 15 to 30 | 30 to 60 | – | 60 to 100 | 60 to 100 | – | 30 to 60
COc1ccc(C(=O)CCc2ccc(O)cc2)c(O)c1CCC(C)C [Compound (C033), 1-(2-hydroxy-3-(3-methylbutyl)-4-methoxyphenyl)-3-(4-hydroxyphenyl)-propan-1-one] | > 100 | > 100 | 60 to 100 | 30 to 60 | 30 to 60 | – | – | – | – | –
COc1ccc(C(=O)/C=C/c2ccc(Cl)cc2)c(OC(C)=O)c1CC=C(C)C [Compound (C079), 4-chloro-2′-acetoxy-3′-prenyl-4′-methoxychalcone] | 60 to 100 | > 100 | > 100 | > 100 | 60 to 100 | – | – | – | – | –
CC(=O)c1ccc(OC2CCCCO2)c(CC=C(C)C)c1O (stereo not shown) [Compound (C044), 2′-hydroxy-3′-prenyl-4′-tetrahydropyranyloxyacetophenone] | 30 to 60 | 60 to 100 | > 100 | – | 30 to 60 | – | – | – | – | –
COc1ccc(C(=O)/C=C/c2ccc(OC(C)=O)cc2)c(OC(C)=O)c1CC=C(C)C [Compound (C032), 4,2′-diacetoxy-3′-prenyl-4′-methoxychalcone] | > 100 | > 100 | > 100 | > 100 | > 100 | 60 to 100 | – | – | – | –
CC(=O)Oc1ccc(/C=C/C(=O)c2ccc(OC(C)=O)c(C/C=C(\C)CCC=C(C)C)c2OC(C)=O)cc1 [Compound (C061), 4,2′,4′-triacetoxy-3′-geranylchalcone] | 60 to 100 | > 100 | 30 to 60 | – | – | – | – | – | – | –
O=C(/C=C/c1ccc(O)cc1)c1ccc(O)c(Cc2ccccc2)c1O [Compound (C057), 4,2′,4′-trihydroxy-3′-benzylchalcone] | 30 to 60 | > 100 | > 100 | – | 15 to 30 | – | – | – | – | –
COc1ccc(/C=C/C(=O)c2ccc(OC)c(CC=C(C)C)c2O)c(O)c1CC=C(C)C [Compound (C072), 2,2′-dihydroxy-3,3′-diprenyl-4,4′-dimethoxychalcone] | > 100 | > 100 | 30 to 60 | – | – | – | – | – | – | –
C=C(C)C(CC/C(C)=C/Cc1c(OC)ccc(C(=O)/C=C/c2ccc(O)cc2)c1O)OO (stereo not shown) [TB9, 1-[2-hydroxy-3-(6-hydroperoxy-3,7-dimethyl-2,7-octadienyl)-4-methoxyphenyl]-3-(4-hydroxyphenyl)-2-propen-1-one] | – | > 100 | 30 to 60 | 15 to 30 | 15 to 30 | – | – | – | – | –
CCOC(C)(C)C(O)CC/C(C)=C/Cc1c(O)ccc(C(=O)/C=C/c2ccc(O)cc2)c1O (stereo not shown) [TB6, 1-[3-(7-ethoxy-6-hydroxy-3,7-dimethyl-2-octenyl)-2,4-dihydroxyphenyl]-3-(4-hydroxyphenyl)-2-propen-1-one] | 15 to 30 | > 100 | 30 to 60 | – | – | – | – | – | – | –
CC(C)=CCc1c(O)ccc(C(=O)/C=C/c2ccc(O)cc2)c1O [Isobavachalcone] | 30 to 60 | 60 to 100 | > 100 | 15 to 30 | 60 to 100 | – | – | – | – | –
